How the values were obtained:
[1] = tested on: hBMSCs; experiment: Calcium deposit staining (X-Rhod-1) in hBMSCs; type: cell-based, human; conditions: X‐Rhod‐1, p < 0.05
Method: hBMSCs were differentiated in the presence of the 10 mM β‐glycerophosphate (Sigma‐Aldrich, G9422) and 50 µM ascorbic acid (Sigma‐Aldrich, A4403) in culture medium for 10 d. Subsequently, the cells were fixed with 4% PFA for 30 min, followed by two washes with Mg^2+‐and Ca^2+‐free dPBS (Welgene, LB‐204). To stain for calcium, X‐Rhod‐1 (Invitrogen, X14210) dye was diluted in Mg^2+‐and Ca^2+‐free dPBS at a concentration of 1 µM and incubated at room temperature in the dark for 1 h. The cells were then washed five times with Mg^2+‐and Ca^2+‐free dPBS at 10 min intervals. The samples were observed under a Cytation5 microscope (Agilent Technologies) at a wavelength of 595 nm.

[2] = tested on: osteocalcin (OCN); experiment: Immunostaining of osteogenic markers in hBMSCs; type: cell-based, human; conditions: 10 µM
[3] = tested on: OVX-induced osteoporosis model; experiment: Ovariectomy (OVX)-induced osteoporosis mouse model; type: in vivo, C57BL6 mice; conditions: OVX mice
Method: -Establishment of Ovariectomized Mice Model: The experimental protocols were approved by the IACUC (Approval code: IACUC230118) at the CHA Laboratory Animal Research Center. The mice were handled in compliance with the Guidelines for the Care and Use of Animals at the institution. Female C57BL6 mice (seven weeks old (n = 57)) were randomly divided into six groups (n = 8-10): […] All surgeries and pump implantations were performed under aseptic conditions. Mice were anesthetized before removing both sides of the ovaries. In the fourth week following surgery, an Alzet osmotic pump (Durect Corp, #1004) was implanted in the mice. […] Images were acquired at an effective pixel size of 50 μm (130 kV and 60 μA radiation source; 1.0 mm aluminum filter). Subsequently, 3D images were reconstructed from the 2D X-ray projections by implementing the Feldkamp algorithm, and appropriate image corrections, including ring artifact correction, beam hardening correction, and fine-tuning, were processed using NRecon software (SkyScan 1173, Belgium). The dynamic image range (contrast limits) was determined at 0-0.3 in units of attenuation coefficient and was applied to all datasets for optimum image contrast. After acquisition and reconstruction of the datasets, images were first reoriented on each 3D plane using DataViewer software (SkyScan 1173, Belgium) to align the long axis of the femur parallel to the coronal and sagittal planes. Next, 3D morphometric analyses of the distal femur and body of the lumbar vertebrae were performed using CT-Analyzer software (SkyScan 1173, Belgium). Regarding the region of interest (ROI), this work analyzed the 1.5 mm […] trabecular bone of the distal femur metaphysis, excluding the growth plate. The ROIs were delineated using a freehand drawing tool while maintaining a […] clearance from the endosteal surface. […] A global threshold of 60 (1.01573 g cm^-3) was applied to all scans to extract a physiologically accurate representation of the trabecular bone phase. […] All quantitative and structural parameters followed the nomenclature and units recommended by the American Society for Bone and Mineral Research (ASBMR) Histomorphometry Nomenclature Committee. After data quantification,^[ [26b] ^] 3D rendered images were generated to visualize the analyzed regions using the marching cube method. -H&E staining: Following decalcification, the specimens were fixed in paraffin and longitudinally sliced to a thickness of 3 μm using a microtome. Subsequently, each sample was affixed to a slide and exposed to a temperature of 55 °C. […] The slides underwent a 1 min wash in flowing purified water and immersed in Harris hematoxylin-I for 5 min, followed by a 1 min wash under flowing tap water. Sections were briefly immersed in ammonia water for 30 s and washed with tap water for 3 min. Subsequently, the sections were stained with Eosin Y for 2 min and 30 s, followed by gradual drying in 95%-100% ethanol. Any residual stain was rinsed with distilled water and each section was mounted. -Masson's trichrome staining: Following deparaffinization and hydration, the sections underwent treatment with a mordant containing a 5% iron alum solution in a dry oven at 56 °C for 30 min. Sections were washed under running tap water for 5-6 min to remove picric acid. Sections were stained with Weigert's iron hematoxylin solution for 10 min, followed by rinsing with purified water. A 5 min staining with Biebrich scarlet-acid fuchsin solution ensued, succeeded by washing with purified water. The sections were immersed in a phosphomolybdic-phosphotungstic acid solution for 5 min. After discarding the solution, the sections were washed with distilled water. Differentiation was performed in 1% glacial acetic acid solution for 3 min. The solution was discarded, and the remaining stain was washed with distilled water.

[4] = tested on: bone marrow; experiment: Immunohistochemistry of femur bone marrow in the OVX model; type: in vivo; conditions: OVX mice femur
Method: ‐Immunohistochemistry: Decalcified femurs were fixed in 4% paraformaldehyde (PFA) at 4 °C for 24 h, rinsed three times with phosphate‐buffered saline (PBS), and decalcified in 12.5 mM EDTA (pH 8.0) for 14 days. The specimens were dehydrated through a graded ethanol series (70%, 80%, 95%, 100%) and embedded in paraffin. Longitudinal sections (3 µm thick) were prepared using a microtome, mounted on glass slides, and dried at 55 °C. For deparaffinization, slides were treated with xylene (four 5‐min treatments) and rehydrated through descending ethanol concentrations (100%, 95%, 80%, 70%) in 2‐min intervals. Immunohistochemistry was performed with a ready‐to‐use IHC/ICC kit (BioVision, Inc.). Sections were incubated overnight at room temperature with primary antibodies (1:100) against MDM2, p53, Bcl‐2, and cleaved caspase‐3, followed by a 20‐min incubation with HRP‐conjugated anti‐mouse IgG polymer. After PBS washes, antigen‐antibody complexes were visualized using 3,3′‐diaminobenzidine (DAB) for 10 min, and sections were counterstained with hematoxylin for 1 minute. The stained sections were imaged using a Slide Scanner (Zeiss, Germany).

[5] = 0.5 mg kg^−1, osmotic pump 28 days
[6] = 0.5 mg kg^−1, same concentration of Nutlin‐3

COc1ccc(C2=N[C@H](c3ccc(Cl)cc3)[C@H](c3ccc(Cl)cc3)N2C(=O)N2CCN(CC(=O)NCCCCCCCCOc3cccc4c3C(=O)N(C3CCC(=O)NC3=O)C4=O)C(=O)C2)c(OC(C)C)c1 (stereo in doubt) [CL144]
calcium deposits compared to the control group [1]: significantly increased
osteocalcin (OCN) protein intensity compared to the control group [2]: no statistically significant difference
regenerative effect compared with alendronate ([3]; 0.5 mg kg^−1): results comparable to those of the alendronate‐treated group
recovery in BV/TV compared to the OVX group [3, 5]: 65%
recovery in Tb.N compared to the OVX group [3, 5]: 58%
improvement in BV/TV compared to the Nutlin‐3 group [3, 6]: 56%
improvement in Tb.N compared to the Nutlin‐3 group [3, 6]: 61%
recovery in BMD compared to the OVX group ([3]; 1 mg kg^−1, osmotic pump 28 days): 12%
improvement in BMD compared to the Nutlin‐3 group ([3]; 1 mg kg^−1, same concentration of Nutlin‐3): 13%
bone histology (H&E staining) versus OVX group ([3]; tibia and femur tissues): newly formed trabecular structures were observed
expression of apoptosis markers Bcl‐2 or cleaved caspase‐3 (bone marrow toxicity) ([4]; IHC): no corresponding increase
MDM2 expression (IHC) ([4]; compared to Con and DMSO group): effectively reduced MDM2 expression
p53 expression (IHC) ([4]; compared to Con and DMSO group): significantly increased p53 expression

From article PMC12097015, “Development of MDM2‐Targeting PROTAC for Advancing Bone Regeneration” (Advanced Science, 2025)
